# Test system: NI16 promoter fragment 544 bp
# Assay: GUS florescence assay of promoter::GUS plants after SA application, NI16 544 bp fragment
# Format: in vivo, Arabidopsis
# Conditions: 5 mM SA spray
# Description: A binary promoter::reporter plasmid (pNOV2374) for Arabidopsis transformation was constructed. The regulatory/promoter sequence was fused to the GUS reporter gene (Jefferson et al. (1987) EMBO J 6: 3901-3907) by recombination using […] Technology according to the manufacturer's protocol as described in the Instruction Manual (LifeTechnologies, Rockville, Md.). The construct was then transformed into Agrobacterium tumefaciens strains by electroporation. pNOV2374 is a binary vector with a VS1 origin of replication, a copy of the Agrobacterium virg gene in the backbone, and a Basta® resistance selectable marker cassette between the left and right border sequences of the T-DNA. The Basta® selectable marker cassette comprises the Agrobacterium tumefaciens manopine synthase promoter (AtMas) (Barker et al., Plant Mol. Biol. 2, 335-350 (1983)) operably linked to the gene encoding Basta® resistance (i.e., the “BAR” gene, phosphinothricin acetyl transferase) (White et al., Nucl Acids Res 18: 1062 (1990)) and the 35S terminator. The AtMas promoter, the BAR coding sequence, and the 35S terminator are located at nt 4211 to nt 4679, nt 4680 to nt 5228, and nt 5263 to nt 5488, respectively, of pNOV2374. The vector contains […] recombination components, which were introduced into the binary vector backbone by ligating a blunt-ended cassette containing attR sites, ccdB, and a cholramphenicol resistance marker using the […] Vector Conversion System (LifeTechnologies, Rockville, Md.). The […] cassette was located between nt 126 and 1818 of pNOV2374. The promoter cassettes were inserted through an LR recombination reaction whereby the DNA sequence of pNOV2374 between nt 126 and nt 1818 were removed and replaced with the promoter of interest flanked by att sequences. […] The GIG gene (SEQ ID NO:29) contains the ST-LS1 intron from Solanum tuberosum at nt 385 to nt 576 of GUS (obtained from Dr. Stanton […], Purdue University, and described in Narasimhulu, et al. (1996) Plant Cell 8: 873-886.). […] The treatment was applied as a fine mist to the leaves. Leaf tissue was harvested from plants for the β-glucuronidase (GUS) florescence assay prior to SA application (T0) and at various time intervals after application. For quantitative analysis of promoter activity following induction treatments or in various Arabidopsis tissues and organs, GUS expression is measured florometrically. Tissue samples were harvested and ground in ice cold GUS extraction buffer (50 mM Na2HPO4 pH 7.0, 5 mM DTT, 1 mM Na2EDTA, 0.1% TritonX100, 0.1% sarcosyl). Ground samples were spun in a microfuge at 10,000 rpm for 15 minutes at 4° C. Following centrifugation, the supernatant was removed for the GUS assay and for a protein concentration determination. To measure GUS activity, the plant extract was assayed in GUS assay buffer (50 mM Na2HPO4 pH 7.0, 5 mM DTT, 1 mM Na2EDTA, 0.1% TritonX100, 0.1% sarcosyl, 1 mM 4-Methylumbelliferyl-beta-D-glucuronic acid dihydrate (MUG)), pre-warmed to 37° C. Reactions were incubated, and 100 uL aliquots were removed at 10 minute intervals over 30 minutes to stop the reaction by adding the 100 uL aliquots to tubes containing 900 uL of 2% Na2CO3. The stopped reactions were then read on a Tecan Spectroflourometer at 365 nm excitation and 455 emission wavelengths. Protein concentrations were determined using the BCA assay following the manufacturer's protocol. GUS activity is expressed as pmol MU/mg protein/min.
structure (smiles),measurement,setting,value
"O=C(O)c1ccccc1O [SA, salicylic acid]",GUS Activity Induced by SA,2 h,52.2 pmol/mg protein/min
same,GUS activity Fold-change relative to T0 (uninduced),2 h,4.3 fold
same,GUS Activity Induced by SA,4 h,72.5 pmol/mg protein/min
same,GUS activity Fold-change relative to T0 (uninduced),4 h,6.0 fold
same,GUS Activity Induced by SA,8 h,194.9 pmol/mg protein/min
same,GUS activity Fold-change relative to T0 (uninduced),8 h,16.2 fold
same,GUS Activity Induced by SA,24 h,205.4 pmol/mg protein/min
same,GUS activity Fold-change relative to T0 (uninduced),24 h,17.0 fold

# Source: patent US7199286B2, “Plant-derived novel pathogen and SAR-induction chemical induced promoters, and fragments thereof” (Syngenta Participations AG, priority 1999, dated 2007)
